In patent US20110145975A1, “P0WDER-FREE GLOVE WITH STABLE AND FAST ACTING MICROBIAL COATING” (ANSELL LIMITED, priority 2009, published 2011):

Assay type: physicochemical
Description: Several cationic antimicrobial agents are available for incorporation into the antimicrobial coating. The resistances of these cationic antimicrobial agents to degradation vary due to differences in their chemical structure, molecular weight, and species of anions and anionic surfactants that tend to degrade the long lifetime of the antimicrobial coating. […] Mixtures of antimicrobial agents can be used, for example to expand the range of bacteria against which the coating is effective.

Substance: poly(hexamethylene biguanide) chloride
- resistance to degradation: more resistant to degradation than CHG
